Data from patent US11866720B2, “Transgenic or non-transgenic plants with mutated protoporphyrinogen oxidase having increased tolerance to herbicides” (priority 2013, dated 2024).
Where “and” joins values, the source holds several entries; their conditions need not be identical. Equal values may be shown once. Read-outs that look alike come from different tables or passages of the source.

Tests used:
Assay type in all cases: in vivo, Glycine max
[1] = system: transgenic soybean expressing mutated PPO; test: Soybean T0 cuttings, greenhouse spray test (injury score 0-9, 1 week after treatment); details: for Injury score from 0-9: soybean T0 cuttings, 1 week after treatment
Excerpt: For testing of T0 plants, cuttings can be used. In the case of soybean plants, an optimal shoot for cutting is about 7.5 to 10 cm tall, with at least two nodes present. Each cutting is taken from the original transformant (mother plant) and dipped into rooting hormone powder (indole-3-butyric acid, IBA). The cutting is then placed in oasis wedges inside a bio-dome. Wild type cuttings are also taken simultaneously to serve as controls. The cuttings are kept in the bio-dome for 5-7 days and then transplanted to pots and then acclimated in the growth chamber for two more days. Subsequently, the cuttings are transferred to the greenhouse, acclimated for approximately 4 days, and then subjected to spray tests as indicated. Depending on the species, the plants are kept at 10-25° C. or 20-35° C. The test period extends over 3 weeks. During this time, the plants are tended and their response to the individual treatments is evaluated. Herbicide injury evaluations are taken at 2 and 3 weeks after treatment. Plant injury is rated on a scale of 0% to 100%, 0% being no injury and 100% being complete death.
Soybean cv Jake was transformed as previously described by Siminszky et al., Phytochem Rev. 5:445-458 (2006). After regeneration, transformants were transplanted to soil in small pots, placed in growth chambers (16 hr day/8 hr night; 25° C. day/23° C. night; 65% relative humidity; 130-150 microE m-2 s-1) and subsequently tested for the presence of the T-DNA via Taqman analysis. After a few weeks, healthy, transgenic positive, single copy events were transplanted to larger pots and allowed to grow in the growth chamber. An optimal shoot for cutting was about 3-4 inches tall, with at least two nodes present. Each cutting was taken from the original transformant (mother plant) and dipped into rooting hormone powder (indole-3-butyric acid, IBA). The cutting was then placed in oasis wedges inside a bio-dome. The mother plant was taken to maturity in the greenhouse and harvested for seed. Wild type cuttings were also taken simultaneously to serve as negative controls. The cuttings were kept in the bio-dome for 5-7 days and then transplanted to 3 inch pots and then acclimated in the growth chamber for two more days. […] Herbicide injury evaluations were taken at 2, 7, 14 and 21 days after treatment. Results are shown in Tables 11a-11i, and FIGS. 5, 6, and 7.
The following gives a definition of the injury scores measured above: […]

[2] = system: transgenic soybean expressing mutated PPO; test: Soybean segregating T1 individuals, greenhouse spray test (injury 0-9); details: Saflufenacil 150 g ai/ha, 1 week after treatment
[3] = system: transgenic soybean expressing mutated PPO; details: T1 soybean, field

CC(C)N(C)S(=O)(=O)NC(=O)c1cc(-n2c(=O)cc(C(F)(F)F)n(C)c2=O)c(F)cc1Cl [Saflufenacil, saflufenacil]
injury score 1 WAT ([1]; Soy T0 AmtuPPX2L_R128L_F420V event 1, greenhouse, 100 g ai/ha): 4
injury score 1 WAT ([1]; Soy T0 AmtuPPX2L_R128L_F420V event 1, greenhouse, 200 g ai/ha): 6
injury score 1 WAT ([1]; Soy T0 AmtuPPX2L_R128L_F420V event 2, greenhouse, 100 g ai/ha): 1
injury score 1 WAT ([1]; Soy T0 AmtuPPX2L_R128L_F420V event 2, greenhouse, 200 g ai/ha): 2
Injury score from 0-9 ([1]; AmtuPPX2L (10 events), Kixor 12.5 + 1% MSO): 2
Injury score from 0-9 ([1]; AmtuPPX2L (10 events), Kixor 25 + 1% MSO): 4
Injury score from 0-9 ([1]; AmtuPPX2L (10 events), Kixor 50 + 1% MSO): 7
Injury score from 0-9 ([1]; AmtuPPX2L_F420L (7 events), Kixor 12.5 + 1% MSO): 1
Injury score from 0-9 ([1]; AmtuPPX2L_F420L (7 events), Kixor 25 + 1% MSO): 0
Injury score from 0-9 ([1]; AmtuPPX2L_F420L (7 events), Kixor 50 + 1% MSO): 0
Injury score from 0-9 ([1]; AmtuPPX2L_F420M (8 events), Kixor 25 + 1% MSO): 0
Injury score from 0-9 ([1]; AmtuPPX2L_F420M (8 events), Kixor 50 + 1% MSO): 3
Injury score from 0-9 ([1]; AmtuPPX2L_F420M (8 events), Kixor 100 + 1% MSO): 3
Injury score from 0-9 ([1]; AmtuPPX2L_R128A_F420I (9 events), Kixor 200 + 1% MSO): 1
Injury score from 0-9 ([1]; AmtuPPX2L_R128A_F420L (6 events), Kixor 25 + 1% MSO): 0
Injury score from 0-9 ([1]; AmtuPPX2L_R128A_F420L (6 events), Kixor 50 + 1% MSO): 1
Injury score from 0-9 ([1]; AmtuPPX2L_R128A_F420L (6 events), Kixor 100 + 1% MSO): 1
Injury score from 0-9 ([1]; AmtuPPX2L_R128A_F420M (7 events), Kixor 100 + 1% MSO): 2
Injury score from 0-9 ([1]; AmtuPPX2L_R128A_F420M (7 events), Kixor 200 + 1% MSO): 2
Injury score from 0-9 ([1]; AmtuPPX2L_R128A_F420V (14 events), Kixor 100 + 1% MSO): 2
Injury score from 0-9 ([1]; AmtuPPX2L_R128A_F420V (14 events), Kixor 200 + 1% MSO): 2
Injury score from 0-9 ([1]; AmtuPPX2L_dG210 (13 events), Kixor 25 + 1% MSO): 1
Injury score from 0-9 ([1]; AmtuPPX2L_dG210 (13 events), Kixor 50 + 1% MSO): 2
Injury score from 0-9 ([1]; AmtuPPX2L_dG210 (13 events), Kixor 100 + 1% MSO): 1
Injury score from 0-9 ([1]; AmtuPPX2L_dG210_R128L (12 events), Kixor 25 + 1% MSO): 0
Injury score from 0-9 ([1]; AmtuPPX2L_dG210_R128L (12 events), Kixor 50 + 1% MSO): 1
Injury score from 0-9 ([1]; AmtuPPX2L_dG210_R128L (12 events), Kixor 100 + 1% MSO): 1
Injury score from 0-9 ([1]; NitabPPX2 (13 events), Kixor 12.5 + 1% MSO): 3
Injury score from 0-9 ([1]; NitabPPX2 (13 events), Kixor 25 + 1% MSO): 6
Injury score from 0-9 ([1]; NitabPPX2 (13 events), Kixor 50 + 1% MSO): 9
Injury score from 0-9 ([1]; NitabPPX2_R98A_F392V (9 events), Kixor 50 + 1% MSO): 0
Injury score from 0-9 ([1]; NitabPPX2_R98A_F392V (9 events), Kixor 100 + 1% MSO): 2
Injury score from 0-9 ([1]; NitabPPX2_R98A_F392V (9 events), Kixor 200 + 1% MSO): 2
Injury score from 0-9 ([1]; wild type Jake variety, Kixor 12.5 + 1% MSO): 9
Injury score from 0-9 ([1]; wild type Jake variety, Kixor 25 + 1% MSO): 9
Injury score from 0-9 ([1]; wild type Jake variety, Kixor 50 + 1% MSO): 9
Injury score from 0-9 ([1]; wild type Jake variety, Kixor 100 + 1% MSO): 9
Injury score from 0-9 ([1]; wild type Jake variety, Kixor 200 + 1% MSO): 9
injury (0-9 point scale) ([2]; SDS10791 AmtuPPX2L R128A_F420I): 1 (2×) and 2 and 0 and 9 (4×)
injury (0-9 point scale) ([2]; SDS-10642 AmtuPPX2L R128A_F420L): 0 (6×) and 1 (2×)
injury (0-9 point scale) ([2]; SDS-10648 AmtuPPX2L R128A_F420I): 3 and 4 (3×) and 5 (3×) and 6
injury (0-9 point scale) ([2]; SDS-10652 AmtuPPX2L L397D_F420V): 3 (3×) and 5 (2×) and 4 (2×) and 6
injury (0-9 point scale) ([2]; SDS-10787 AmtuPPX2L R128A_F420L): 6 and 5 and 4 (4×) and 0 and 9
injury (0-9 point scale) ([2]; SDS-10985 AmtuPPX2L R128A_F420M): 0 (3×) and 1 (2×) and 3 and 2
injury (0-9 point scale) ([2]; SDS-10990 AmtuPPX2L R128A_F420M): 3 (4×) and 4 and 9 and 0 and 1
injury (0-9 point scale) ([2]; SDS-11034 AmtuPPX2L R128A_F420V): 0 (5×) and 5 and 1 and 2
injury (0-9 point scale) ([2]; wild type): 9
Injury rating (1-5 point scale) ([3]; AmtuPPX2L_R128A_F420V (event 10), saflufenacil: treatment 1 150 g ai/ha, treatment 2 0, 7 DAT): 3
Injury rating (1-5 point scale) ([3]; AmtuPPX2L_R128A_F420V (event 10), saflufenacil: treatment 1 300 g ai/ha, treatment 2 300 g ai/ha, 14 DAT): 3
Injury rating (1-5 point scale) ([3]; SDS-10533 LTM382-2 AmtuPPX2L_F420L, Saflufenacil (75 gai/ha), 3 days after treatment): 2.5
Injury rating (1-5 point scale) ([3]; SDS-10533 LTM382-2 AmtuPPX2L_F420L, Saflufenacil (150 gai/ha), 3 days after treatment): 2.5
Injury rating (1-5 point scale) ([3]; SDS-10544 LTM382-2 AmtuPPX2L_F420L, Saflufenacil (75 gai/ha), 3 days after treatment): 2.5
Injury rating (1-5 point scale) ([3]; SDS-10544 LTM382-2 AmtuPPX2L_F420L, Saflufenacil (150 gai/ha), 3 days after treatment): 2.5
Injury rating (1-5 point scale) ([3]; SDS-10558 LTM382-2 AmtuPPX2L_F420L, Saflufenacil (75 gai/ha), 3 days after treatment): 2.5
Injury rating (1-5 point scale) ([3]; SDS-10558 LTM382-2 AmtuPPX2L_F420L, Saflufenacil (150 gai/ha), 3 days after treatment): 2
Injury rating (1-5 point scale) ([3]; SDS-10562 LTM377-1 AmtuPPX2L_dG210, Saflufenacil (75 gai/ha), 3 days after treatment): 4
Injury rating (1-5 point scale) ([3]; SDS-10562 LTM377-1 AmtuPPX2L_dG210, Saflufenacil (150 gai/ha), 3 days after treatment): 4
Injury rating (1-5 point scale) ([3]; SDS-10566 LTM377-1 AmtuPPX2L_dG210, Saflufenacil (75 gai/ha), 3 days after treatment): 4
Injury rating (1-5 point scale) ([3]; SDS-10566 LTM377-1 AmtuPPX2L_dG210, Saflufenacil (150 gai/ha), 3 days after treatment): 4
Injury rating (1-5 point scale) ([3]; SDS-10633 LTM383-1 AmtuPPX2L_F420M, Saflufenacil (75 gai/ha), 3 days after treatment): 3
Injury rating (1-5 point scale) ([3]; SDS-10633 LTM383-1 AmtuPPX2L_F420M, Saflufenacil (150 gai/ha), 3 days after treatment): 3
Injury rating (1-5 point scale) ([3]; SDS-10635 LTM383-1 AmtuPPX2L_F420M, Saflufenacil (75 gai/ha), 3 days after treatment): 3.5
Injury rating (1-5 point scale) ([3]; SDS-10635 LTM383-1 AmtuPPX2L_F420M, Saflufenacil (150 gai/ha), 3 days after treatment): 3.5
Injury rating (1-5 point scale) ([3]; SDS-10642 LTM384-1 AmtuPPX2L_R128A_F420L, Saflufenacil (75 gai/ha), 3 days after treatment): 2
Injury rating (1-5 point scale) ([3]; SDS-10642 LTM384-1 AmtuPPX2L_R128A_F420L, Saflufenacil (150 gai/ha), 3 days after treatment): 2
Injury rating (1-5 point scale) ([3]; SDS-10645 LTM383-1 AmtuPPX2L_F420M, Saflufenacil (75 gai/ha), 3 days after treatment): 4
Injury rating (1-5 point scale) ([3]; SDS-10645 LTM383-1 AmtuPPX2L_F420M, Saflufenacil (150 gai/ha), 3 days after treatment): 3
Injury rating (1-5 point scale) ([3]; SDS-10646 LTM383-1 AmtuPPX2L_F420M, Saflufenacil (75 gai/ha), 3 days after treatment): 2.5
Injury rating (1-5 point scale) ([3]; SDS-10646 LTM383-1 AmtuPPX2L_F420M, Saflufenacil (150 gai/ha), 3 days after treatment): 2.5
